Laboratory results published in publication PMC5509550, “Development of a Novel Lead that Targets M. tuberculosis Polyketide Synthase 13” (Cell, 2017).
In brackets after ≈: the same amount, converted by molar mass. Read-outs that look alike come from different tables or passages of the source.

Tests used:
[1] = system: Mtb mc^27000; assay: microbe, parasite or virus in culture; type: cell-based, Mycobacterium tuberculosis; settings: for MIC: Mycobacterium tuberculosis, read-out: MIC of the drug alone
[2] = biological target: T1, Mtb Pks13-TE domain (Mycobacterium tuberculosis, UniProt I6X8D2); assay: biochemical; settings: mean ± SD of three independent measurements
T1 construct: The 283 residue long TE domain starting from residue 1451 in full length Pks13; His6 (TEV-cleavable) (N, cleaved yes); made in house; host or cells: E. coli BL21(DE3)pLysS
T1 sequence (I6X8D2 1451-1733 limits assumed): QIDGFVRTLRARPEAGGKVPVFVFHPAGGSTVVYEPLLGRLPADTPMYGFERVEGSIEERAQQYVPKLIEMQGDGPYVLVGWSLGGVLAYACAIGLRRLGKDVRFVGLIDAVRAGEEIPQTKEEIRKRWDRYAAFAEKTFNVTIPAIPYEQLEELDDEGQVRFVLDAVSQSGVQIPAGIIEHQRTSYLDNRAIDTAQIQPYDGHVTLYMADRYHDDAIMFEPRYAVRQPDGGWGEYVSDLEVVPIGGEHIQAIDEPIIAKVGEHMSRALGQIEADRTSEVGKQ

[3] = system: Mtb mc^27000; assay: microbe, parasite or virus in culture; type: cell-based, Mycobacterium tuberculosis; settings: for MIC: Mtb mc^27000, liquid medium, 96-well plates
[4] = system: M. tuberculosis Erdman; set-up: species or system Mycobacterium tuberculosis; settings: in vivo
[5] = Stability in mouse serum
[6] = Microsomal stability assay, mouse liver microsomes; settings: metabolite identification
[7] = biological target: T2, CYP1A2 (Homo sapiens, UniProt P05177); assay: biochemical
T2 sequence (P05177 1-516): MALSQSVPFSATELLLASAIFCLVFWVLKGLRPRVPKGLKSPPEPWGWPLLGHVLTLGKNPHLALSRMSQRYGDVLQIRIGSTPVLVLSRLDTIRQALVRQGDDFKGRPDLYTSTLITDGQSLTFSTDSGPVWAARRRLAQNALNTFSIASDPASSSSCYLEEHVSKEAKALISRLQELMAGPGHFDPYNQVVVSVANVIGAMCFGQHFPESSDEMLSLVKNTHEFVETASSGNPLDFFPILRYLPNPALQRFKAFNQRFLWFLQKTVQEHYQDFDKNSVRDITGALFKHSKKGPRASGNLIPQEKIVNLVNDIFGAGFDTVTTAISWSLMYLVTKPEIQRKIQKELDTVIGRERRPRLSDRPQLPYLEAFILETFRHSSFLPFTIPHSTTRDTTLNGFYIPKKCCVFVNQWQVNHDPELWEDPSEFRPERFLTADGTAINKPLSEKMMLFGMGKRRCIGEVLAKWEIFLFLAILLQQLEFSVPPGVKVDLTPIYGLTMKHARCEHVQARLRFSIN

[8] = biological target: CYP2C9 (Homo sapiens, UniProt P11712); assay: biochemical
[9] = biological target: CYP2D6 (Homo sapiens, UniProt P10635); assay: biochemical
[10] = system: M. tuberculosis H37Rv; set-up: species or system Mycobacterium tuberculosis; settings: in vivo
[11] = system: M. tuberculosis Erdman; set-up: species or system Mycobacterium tuberculosis; settings: in vivo; remark: listed apart in the source
[12] = single drug in the synergy study

Sequence of CYP2D6 (P10635 whole entry): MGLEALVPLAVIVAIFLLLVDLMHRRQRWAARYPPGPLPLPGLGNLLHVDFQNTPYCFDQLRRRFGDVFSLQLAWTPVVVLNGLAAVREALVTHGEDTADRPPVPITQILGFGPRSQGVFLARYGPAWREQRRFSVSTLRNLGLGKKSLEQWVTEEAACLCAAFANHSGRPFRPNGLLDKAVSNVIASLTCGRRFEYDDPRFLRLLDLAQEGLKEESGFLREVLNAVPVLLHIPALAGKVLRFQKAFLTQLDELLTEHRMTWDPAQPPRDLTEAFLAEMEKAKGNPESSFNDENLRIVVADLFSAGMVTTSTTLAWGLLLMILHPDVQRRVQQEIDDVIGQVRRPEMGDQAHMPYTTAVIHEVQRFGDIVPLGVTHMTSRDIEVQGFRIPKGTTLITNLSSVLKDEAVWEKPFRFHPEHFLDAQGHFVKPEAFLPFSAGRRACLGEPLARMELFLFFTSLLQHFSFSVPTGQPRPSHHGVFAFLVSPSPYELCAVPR
Sequence of CYP2C9 (P11712 whole entry): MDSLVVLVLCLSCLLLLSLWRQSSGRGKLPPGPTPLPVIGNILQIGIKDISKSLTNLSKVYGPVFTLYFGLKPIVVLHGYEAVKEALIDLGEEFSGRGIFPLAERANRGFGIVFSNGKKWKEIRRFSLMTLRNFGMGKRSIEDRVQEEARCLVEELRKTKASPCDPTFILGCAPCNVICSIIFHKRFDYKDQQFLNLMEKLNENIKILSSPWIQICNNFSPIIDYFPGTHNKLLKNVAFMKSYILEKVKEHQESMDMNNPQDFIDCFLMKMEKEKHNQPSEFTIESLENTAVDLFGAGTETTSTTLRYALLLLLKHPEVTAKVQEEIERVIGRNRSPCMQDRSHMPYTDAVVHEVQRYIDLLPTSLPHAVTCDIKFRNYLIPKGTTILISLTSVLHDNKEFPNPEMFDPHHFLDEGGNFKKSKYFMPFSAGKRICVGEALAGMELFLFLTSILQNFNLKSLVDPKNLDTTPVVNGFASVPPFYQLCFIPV

Structure (SMILES) | IC50 [2] [nM] | MIC ([3]; Mycobacterium tuberculosis) [µM] | also measured
COc1nc2ccc(Br)cc2cc1[C@@H](c1ccccc1)[C@@](O)(CCN(C)C)c1cccc2ccccc12 [TMC207, Bedaquiline] | – | – | MIC of TMC207 in combination [1]: 5 nM; improvement of MIC of TMC207 in combination [1]: 2.6 fold; MIC [1, 12]: 0.013 µM
CNC(=O)c1c(-c2ccc(O)c(F)c2)oc2ccc(O)c(CN3CCCCC3)c12 [TAM18, 2-(3-fluoro-4-hydroxyphenyl)-5-hydroxy-N-methyl-4-(piperidin-1-ylmethyl)benzofuran-3-carboxamide] | 330 ± 30 | 0.5 (≈ 0.199 µg/mL) | –
CCOC(=O)c1c(-c2ccccc2)oc2ccc(O)cc12 [TAM7, Ethyl 5-hydroxy-2-phenylbenzofuran-3-carboxylate] | 20000 ± 1900 | 20 (≈ 5.65 µg/mL) | –
CCOC(=O)c1c(-c2ccccc2)oc2ccc(OC)c(CN3CCCCC3)c12 [TAM14, Ethyl 5-methoxy-2-phenyl-4-(piperidin-1-ylmethyl)benzofuran-3-carboxylate] | 35800 ± 2200 | – | –
[H]/N=C(/N)N[C@H]1[C@H](O)[C@@H](O)[C@H](O[C@@H]2O[C@@H](C)[C@](O)(C=O)[C@H]2O[C@@H]2O[C@@H](CO)[C@H](O)[C@@H](O)[C@@H]2NC)[C@@H](N/C(N)=N\[H])[C@@H]1O [SM, Streptomycin] | – | – | MIC of SM in combination [1]: 0.037 µM; improvement of MIC of SM in combination [1]: ~2 fold; MIC [1, 12]: 0.07 µM
CCOC(=O)c1c(-c2ccccc2)oc2ccc(O)c(Cc3ccccc3)c12 [TAM8, Ethyl 4-benzyl-5-hydroxy-2-phenylbenzofuran-3-carboxylate] | 11900 ± 2300 | > 40 | –
CCOC(=O)c1c(-c2ccccc2)oc2ccc(O)c(CN(C)C)c12 [TAM6, ethyl 4-[(dimethylamino)methyl]-5-hydroxy-2-phenyl-1-benzofuran-3-carboxylate] | 1570 ± 150 | 7.3 (≈ 2.48 µg/mL) | –
CNC(=O)c1c(-c2ccccc2)oc2ccc(O)c(CN3CCCCC3)c12 [TAM12, 5-hydroxy-N-methyl-2-phenyl-4-(piperidin-1-ylmethyl)benzofuran-3-carboxamide] | – | 0.2 (≈ 0.0729 µg/mL) | better whole-cell activity than ethyl ester analog TAM9 [3]: 2 fold; Mouse Cli. (intrinsic clearance in mouse liver microsomes): 50 mL/min/g
CO[C@H]1/C=C/O[C@@]2(C)Oc3c(C)c(O)c4c(O)c(c(/C=N/N5CCN(C)CC5)c(O)c4c3C2=O)NC(=O)/C(C)=C\C=C\[C@H](C)[C@H](O)[C@@H](C)[C@@H](O)[C@@H](C)[C@H](OC(C)=O)[C@@H]1C [RIF, Rifampicin] | – | – | MIC of RIF in combination [1]: 0.011 µM; improvement of MIC of RIF in combination [1]: ~3 fold; MIC [1]: 0.35 µM; CFU reduction in lungs compared to untreated control [4]: ~2.4 log10 CFU
CCOC(=O)c1c(-c2ccccc2)oc2ccc(O)c(CN3CCC(C)CC3)c12 [TAM1, ethyl 5-hydroxy-4-[(4-methyl-1-piperidinyl)methyl]-2-phenyl-1-benzofuran-3-carboxylate] | – | 2.3 (≈ 0.905 µg/mL) | stability in mouse serum [5]: cleaved to the inactive acid; metabolism in mouse liver microsomes [6]: hydroxylated
O=C(O)c1c(-c2ccccc2)oc2ccc(O)c(CN3CCCCC3)c12 [TAM10, 5-hydroxy-2-phenyl-4-(piperidin-1-ylmethyl)benzofuran-3-carboxylic acid] | 6600 ± 700 | – | –
CCOC(=O)c1c(-c2ccc(O)nc2)oc2ccc(O)c(CN3CCCCC3)c12 [TAM17, Ethyl 5-hydroxy-2-(6-hydroxypyridin-3-yl)-4-(piperidin-1-ylmethyl)benzofuran-3-carboxylate] | 360 ± 40 | 4 (≈ 1.59 µg/mL) | –
CCOC(=O)c1c(-c2ccccc2)oc2ccc(O)c(CN3CCCCCC3)c12.Cl [TAM4, ethyl 4-(1-azepanylmethyl)-5-hydroxy-2-phenyl-1-benzofuran-3-carboxylate hydrochloride] | 280 ± 30 | – | MIC [3]: 4.6 µM
CCOC(=O)c1c(-c2ccccc2)oc2ccc(O)c(CN3CCCC3)c12.Cl [TAM3, ethyl 5-hydroxy-2-phenyl-4-(1-pyrrolidinylmethyl)-1-benzofuran-3-carboxylate hydrochloride] | 240 ± 20 | – | MIC [3]: 4.1 µM
CCOC(=O)c1c(-c2ccc(O)cc2)oc2ccc(O)c(CN3CCCC(CO)C3)c12 (centres unmarked) [TAM23, Ethyl 5-hydroxy-4-((3-(hydroxymethyl)piperidin-1-yl)methyl)-2-(4-hydroxyphenyl)benzofuran-3-carboxylate] | 380 ± 10 | 2.5 (≈ 1.06 µg/mL) | –
CCOC(=O)c1c(-c2ccccc2)oc2ccc(O)c(CN3CCCC(CO)C3)c12 (centres unmarked) [TAM21, Ethyl 5-hydroxy-4-((3-(hydroxymethyl)piperidin-1-yl)methyl)-2-phenylbenzofuran-3-carboxylate] | 420 ± 40 | 10 (≈ 4.09 µg/mL) | –
CCOC(=O)c1c(-c2ccccc2)oc2ccc(O)c(CN3CCCC(C)C3)c12 (centres unmarked) [TAM2, ethyl 5-hydroxy-4-[(3-methyl-1-piperidinyl)methyl]-2-phenyl-1-benzofuran-3-carboxylate] | 120 ± 20 | 4.4 (≈ 1.73 µg/mL) | –
Clc1ccc(COC(Cn2ccnc2)c2ccc(Cl)cc2Cl)c(Cl)c1 (centres unmarked) [Miconazole] | – | – | IC50 [7]: 1100 nM; IC50 [8]: > 10 µM; IC50 [9]: 200 nM
CNC(=O)c1c(-c2ccc(O)cc2)oc2cc(O)cc(CN3CCCCC3)c12 [TAM19, 6-hydroxy-2-(4-hydroxyphenyl)-N-methyl-4-(piperidin-1-ylmethyl)benzofuran-3-carboxamide] | 570 ± 30 | 1 (≈ 0.38 µg/mL) | –
CNC(=O)c1c(-c2ccccc2)oc2ccc(O)c(CN3CCCC(CO)C3)c12 (centres unmarked) [TAM24, 5-Hydroxy-4-((3-(hydroxymethyl)piperidin-1-yl)methyl)-N-methyl-2-phenylbenzofuran-3-carboxamide] | 2100 ± 300 | 0.5 (≈ 0.197 µg/mL) | –
CCOC(=O)c1c(-c2ccccc2)oc2ccc(O)c(CN3CCCCC3CO)c12 (centres unmarked) [TAM22, Ethyl 5-hydroxy-4-((2-(hydroxymethyl)piperidin-1-yl)methyl)-2-phenylbenzofuran-3-carboxylate] | > 10000 | > 10 | –
CCOC(=O)c1c(-c2ccccc2)oc2ccc(O)c(CN3CCOCC3)c12 [TAM5, ethyl 5-hydroxy-4-(4-morpholinylmethyl)-2-phenyl-1-benzofuran-3-carboxylate] | 710 ± 50 | 13.3 (≈ 5.07 µg/mL) | –
CCOC(=O)c1c(-c2ccc(O)cc2)oc2ccc(O)c(CN3CCCCC3)c12 [TAM13, Ethyl 5-hydroxy-2-(4-hydroxyphenyl)-4-(piperidin-1-ylmethyl)benzofuran-3-carboxylate] | 170 ± 20 | – | –
CCOC(=O)c1c(-c2ccccc2)oc2ccc(O)c(CN3CCCCC3)c12 [TAM9, Ethyl 5-hydroxy-2-phenyl-4-(piperidin-1-ylmethyl)benzofuran-3-carboxylate] | 260 ± 40 | 0.4 (≈ 0.152 µg/mL) | Mouse Cli. (intrinsic clearance in mouse liver microsomes): 26.9 mL/min/g
CCOC(=O)c1c(-c2ccccc2)oc2cc(O)cc(CN3CCCCC3)c12 [TAM20, Ethyl 6-hydroxy-2-phenyl-4-(piperidin-1-ylmethyl)benzofuran-3-carboxylate] | 450 ± 40 | 1.1 (≈ 0.417 µg/mL) | –
CCOC(=O)c1c(-c2ccccc2)oc2ccc(O)c(CC3CCCCC3)c12 [TAM11, Ethyl 4-(cyclohexylmethyl)-5-hydroxy-2-phenylbenzofuran-3-carboxylate] | 19600 ± 1400 | 5.2 (≈ 1.97 µg/mL) | –
CCOC(=O)c1c(-c2ccccc2)oc2cccc(CN3CCCCC3)c12 [TAM15, Ethyl 2-phenyl-4-(piperidin-1-ylmethyl)benzofuran-3-carboxylate] | 2000 ± 100 | 16 (≈ 5.82 µg/mL) | –
NNC(=O)c1ccncc1 [INH, Isoniazid] | – | – | lung CFU after 2 weeks of treatment [10]: ~6.7 log10; reduction in lung CFU counts compared with untreated control [11]: ~1.1 log10; reduction in spleen bacterial burden relative to untreated control [11]: ~2.5 log10 CFU
